Bounds are passed on as bounds.

T2 sequence (P10721 26-976): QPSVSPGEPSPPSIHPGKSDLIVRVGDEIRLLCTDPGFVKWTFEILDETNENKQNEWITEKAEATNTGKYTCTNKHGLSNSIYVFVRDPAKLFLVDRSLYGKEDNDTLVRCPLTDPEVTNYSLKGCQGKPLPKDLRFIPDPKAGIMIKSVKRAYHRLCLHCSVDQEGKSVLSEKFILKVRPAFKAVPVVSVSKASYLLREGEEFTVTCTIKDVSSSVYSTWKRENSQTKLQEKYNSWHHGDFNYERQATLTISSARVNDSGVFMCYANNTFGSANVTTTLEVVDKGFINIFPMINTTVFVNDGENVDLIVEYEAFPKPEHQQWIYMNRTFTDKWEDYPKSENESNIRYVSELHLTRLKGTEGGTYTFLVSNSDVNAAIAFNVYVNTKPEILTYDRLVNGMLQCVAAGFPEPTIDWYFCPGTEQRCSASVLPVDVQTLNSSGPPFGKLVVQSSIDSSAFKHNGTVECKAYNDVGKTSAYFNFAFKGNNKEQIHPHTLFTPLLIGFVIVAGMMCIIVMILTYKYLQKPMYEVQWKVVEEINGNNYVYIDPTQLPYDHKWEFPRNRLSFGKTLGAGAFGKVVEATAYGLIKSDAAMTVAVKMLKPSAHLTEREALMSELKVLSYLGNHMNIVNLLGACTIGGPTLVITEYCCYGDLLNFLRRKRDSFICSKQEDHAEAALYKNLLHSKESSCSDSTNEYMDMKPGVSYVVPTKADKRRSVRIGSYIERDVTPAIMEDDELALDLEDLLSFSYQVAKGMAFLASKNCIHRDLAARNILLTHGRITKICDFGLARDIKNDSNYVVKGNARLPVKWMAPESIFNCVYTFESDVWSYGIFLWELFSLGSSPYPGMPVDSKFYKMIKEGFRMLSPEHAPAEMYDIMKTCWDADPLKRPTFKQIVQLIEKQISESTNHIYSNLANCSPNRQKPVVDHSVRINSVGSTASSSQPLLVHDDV

The target of one experiment is T1, PDGF-Ra (Homo sapiens, UniProt P16234).
T1 construct: host or cells: G-292 human osteosarcoma cells
T1 sequence (P16234 24-1089): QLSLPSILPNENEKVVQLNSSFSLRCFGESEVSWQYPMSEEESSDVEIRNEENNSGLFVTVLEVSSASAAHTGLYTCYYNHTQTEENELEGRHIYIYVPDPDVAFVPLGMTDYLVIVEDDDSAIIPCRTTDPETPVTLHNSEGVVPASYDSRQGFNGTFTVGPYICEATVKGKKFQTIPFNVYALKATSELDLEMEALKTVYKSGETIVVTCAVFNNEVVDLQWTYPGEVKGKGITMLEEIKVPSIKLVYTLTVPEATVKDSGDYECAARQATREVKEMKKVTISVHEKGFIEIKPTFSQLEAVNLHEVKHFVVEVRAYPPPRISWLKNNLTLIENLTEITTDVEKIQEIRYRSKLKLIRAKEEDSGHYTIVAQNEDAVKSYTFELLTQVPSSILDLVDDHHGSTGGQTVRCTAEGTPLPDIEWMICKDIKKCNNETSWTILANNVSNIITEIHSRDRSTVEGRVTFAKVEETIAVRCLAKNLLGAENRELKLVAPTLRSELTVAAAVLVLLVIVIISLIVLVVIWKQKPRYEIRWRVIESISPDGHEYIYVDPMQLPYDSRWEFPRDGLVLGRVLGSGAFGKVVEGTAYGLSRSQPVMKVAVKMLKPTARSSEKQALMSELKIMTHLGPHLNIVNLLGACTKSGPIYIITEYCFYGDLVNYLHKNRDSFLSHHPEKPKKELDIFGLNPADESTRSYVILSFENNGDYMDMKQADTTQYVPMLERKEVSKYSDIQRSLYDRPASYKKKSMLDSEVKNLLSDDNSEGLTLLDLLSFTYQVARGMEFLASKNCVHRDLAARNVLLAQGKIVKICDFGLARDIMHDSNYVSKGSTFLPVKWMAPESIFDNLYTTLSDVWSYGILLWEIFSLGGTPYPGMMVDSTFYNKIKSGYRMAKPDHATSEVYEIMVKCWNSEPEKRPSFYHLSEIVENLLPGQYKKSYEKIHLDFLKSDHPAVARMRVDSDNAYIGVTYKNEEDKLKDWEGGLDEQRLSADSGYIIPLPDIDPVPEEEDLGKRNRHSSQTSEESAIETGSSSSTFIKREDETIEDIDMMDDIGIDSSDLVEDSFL
In words: Inhibitory activity against PDGF-Ra phosphorylation by PDGF-AA stimulation using G292. It counts as cell-based. The following applies: > means inhibition at indicated concentration not more than 50%, < and << not less than 50%; read-out: PDGF (E) IC50. The procedure, abridged: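 G-292 human osteosarcoma cells, serum-starved overnight in 0.1% FBS, were pretreated with compound in DMSO for 1 hr at 37 °C, then stimulated with 50 ng/ml PDGF-AA for 5 min. Lysates were captured on anti-phosphotyrosine PY-20 plates and probed with anti-PDGF-Ra plus HRP secondary; absorbance read at 450 nm.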
The IC50 is the midpoint of a concentration-inhibition curve. “3-Morpholinopropyl N-{4-[(6,7-dimethoxy-4-quinolyl)oxy]-2,5-dimethylphenyl}carbamate [Example 423]”: the half-maximal inhibitory concentration (IC50) was less than 10 nM.
Same read-out and setting: the result for `COc1cc2ncnc(Oc3ccc(NC(=S)NC(=O)c4cc(Cl)cc(Cl)c4)cc3)c2cc1OC` [Example 1158, N-(3,5-Dichlorobenzoyl)-N′-{4-[(6,7-dimethoxy-4-quinazolinyl)oxy]phenyl}thiourea] reads 46 nM; that for `COc1cc2nccc(Oc3ccc(NC(=S)NC(=O)c4cc(Cl)cc(Cl)c4)c(Cl)c3)c2cc1OC` [Example 1159, N-{2-Chloro-4-[(6,7-dimethoxy-4-quinolyl)oxy]phenyl}-N′-(3,5-dichlorobenzoyl)thiourea], greater than 100 nM.
Regarding `COc1cc2nccc(Oc3ccc(NC(=S)NC(=O)c4ccccc4F)cc3F)c2cc1OC` [Example 1160, N-{4-[(6,7-Dimethoxy-4-quinolyl)oxy]-3-fluorophenyl}-N′-(2-fluorobenzoyl)thiourea], the half-inhibitory concentration (IC50) was less than 10 nM.
Regarding `COc1cc2ncnc(Oc3ccc(NC(=S)NC(=O)c4ccccc4F)cc3)c2cc1OC` [Example 1161, N-{4-[(6,7-Dimethoxy-4-quinazolinyl)oxy]phenyl}-N′-(2-fluorobenzoyl)thiourea], the IC50 was less than 10 nM.
On the same count and under the same terms, the result for `COc1cc2ncnc(Oc3ccc(NC(=S)NC(=O)c4c(Cl)cccc4Cl)cc3)c2cc1OC` [Example 1162, N-(2,6-Dichlorobenzoyl)-N′-{4-[(6,7-dimethoxy-4-quinazolinyl)oxy]phenyl}thiourea] reads 13 nM; that for `COc1cc2nccc(Oc3ccc(NC(=S)NC(=O)c4cccc(F)c4)c(Cl)c3)c2cc1OC` [Example 1163, N-{2-Chloro-4-[(6,7-dimethoxy-4-quinolyl)oxy]phenyl}-N′-(3-fluorobenzoyl)thiourea], greater than 100 nM.
Still for that read-out and setting: the result for `COc1cc2ncnc(Oc3ccc(NC(=S)NC(=O)c4cccc(F)c4)cc3)c2cc1OC` [Example 1164, N-{4-[(6,7-Dimethoxy-4-quinazolinyl)oxy]phenyl}-N′-(3-fluorobenzoyl)thiourea] reads less than 10 nM; that for `COc1cc2nccc(Oc3ccc(NC(=S)NC(=O)c4cccc(Br)c4)c(Cl)c3)c2cc1OC` [Example 1165, N-(3-Bromobenzoyl)-N′-{2-chloro-4-[(6,7-dimethoxy-4-quinolyl)oxy]phenyl}thiourea], greater than 100 nM; that for `COc1cc2nccc(Oc3ccc(NC(=S)NC(=O)c4ccc(Br)cc4)cc3)c2cc1OC` [Example 1166, N-(4-Bromobenzoyl)-N′-{4-[(6,7-dimethoxy-4-quinolyl)oxy]phenyl}thiourea], less than 10 nM.
Same read-out and setting: the result for `COc1cc2nccc(Oc3ccc(NC(=S)NC(=O)c4ccc(Br)cc4)c(Cl)c3)c2cc1OC` [Example 1167, N-(4-Bromobenzoyl)-N′-{2-chloro-4-[(6,7-dimethoxy-4-quinolyl)oxy]phenyl}thiourea] reads greater than 100 nM; that for `COc1cc2ncnc(Oc3ccc(NC(=S)NC(=O)c4ccc(Br)cc4)cc3)c2cc1OC` [Example 1168, N-(4-Bromobenzoyl)-N′-{4-[(6,7-dimethoxy-4-quinazolinyl)oxy]phenyl}thiourea], less than 10 nM.
`COc1cc2nccc(Oc3ccc(NC(=S)NC(=O)Cc4ccc(CBr)cc4)cc3)c2cc1OC` [Example 1169, N-{2-[4-(Bromomethyl)phenyl]acetyl}-N′-{4-[(6,7-dimethoxy-4-quinolyl)oxy]phenyl}thiourea]: the half-maximal inhibitory concentration (IC50) is 37 nM.
Regarding `COc1cc2ncnc(Oc3ccc(NC(=S)NC(=O)CCCCCl)cc3)c2cc1OC` [Example 1170, N-(5-Chloropentanoyl)-N′-{4-[(6,7-dimethoxy-4-quinazolinyl)oxy]phenyl}thiourea], the IC50 was less than 10 nM.
For `COc1cc2nccc(Oc3ccc(NC(=S)NC(=O)Cc4cccs4)cc3)c2cc1OC` [Example 1171, N-{4-[(6,7-Dimethoxy-4-quinolyl)oxy]phenyl}-N′-[2-(2-thienyl)acetyl]thiourea], the IC50 was found to be 13 nM.
Turning to `COc1cc2ncnc(Oc3ccc(NC(=S)NC(=O)Cc4cccs4)cc3)c2cc1OC` [Example 1172, N-{4-[(6,7-Dimethoxy-4-quinazolinyl)oxy]phenyl}-N′-[2-(2-thienyl)acetyl]thiourea], the IC50 came out at 34 nM.
Same read-out and setting: under `COc1ccc(C(=O)NC(=S)Nc2ccc(Oc3ccnc4cc(OC)c(OC)cc34)cc2Cl)cc1` [Example 1173, N-{2-Chloro-4-[(6,7-dimethoxy-4-quinolyl)oxy]phenyl}-N′-(4-methoxybenzoyl)thiourea] stands greater than 100 nM; under `COc1cc2nccc(Oc3ccc(NC(=S)NC(=O)c4ccc(Cl)cc4)c(Cl)c3)c2cc1OC` [Example 1174, N-(4-Chlorobenzoyl)-N′-{2-chloro-4-[(6,7-dimethoxy-4-quinolyl)oxy]phenyl}thiourea], greater than 100 nM; under `COc1ccc(C(=O)NC(=S)Nc2ccc(Oc3ncnc4cc(OC)c(OC)cc34)cc2)c(OC)c1` [Example 1175, N-(2,4-Dimethoxybenzoyl)-N′-{4-[(6,7-dimethoxy-4-quinazolinyl)oxy]phenyl}thiourea], 37 nM.
On the same count and under the same terms, under `COc1ccc(C(=O)NC(=S)Nc2ccc(Oc3ccnc4cc(OC)c(OC)cc34)cc2Cl)c(OC)c1` [Example 1176, N-{2-Chloro-4-[(6,7-dimethoxy-4-quinolyl)oxy]phenyl}-N′-(2,4-dimethoxybenzoyl)thiourea] stands greater than 100 nM.
Turning to `CCOC(=O)CCCC(=O)NC(=S)Nc1ccc(Oc2ncnc3cc(OC)c(OC)cc23)cc1` [Example 1177, Ethyl 5-[({4-[(6,7-dimethoxy-4-quinazolinyl)oxy]anilino}carbothioyl)amino]-5-oxopentanoate], the concentration for half-maximal inhibition (IC50) came to 17 nM.
As for `CCOC(=O)CCC(=O)NC(=S)Nc1ccc(Oc2ncnc3cc(OC)c(OC)cc23)cc1` [Example 1178, Ethyl 4-[({4-[(6,7-dimethoxy-4-quinazolinyl)oxy]anilino}carbothioyl)amino]-4-oxobutanoate], the IC50 was 78 nM.
As for `COc1cc2nccc(Oc3ccc(NC(=S)NC(=O)CCc4cccc(C)c4)cc3Cl)c2cc1OC` [Example 1184, N-{3-Chloro-4-[(6,7-dimethoxy-4quinolyl)oxy]phenyl}-N′-[3-(3-methylphenyl)propanoyl]thiourea], the IC50 was 55 nM.
In the case of `COc1cc2nccc(Oc3ccc(NC(=S)NC(=O)C(C)(C)C)cc3Cl)c2cc1OC` [Example 1187, N-{3-Chloro-4-[(6,7-dimethoxy-4-quinolyl)oxy]phenyl}-N′-(2,2-dimethylpropanoyl)thiourea], the IC50 came to 24 nM.
For `COc1cc2ncnc(Oc3ccc(NC(=S)NC(=O)C(C)(C)C)cc3)c2cc1OC` [Example 1188, N-{4-[(6,7-Dimethoxy-4-quinazolinyl)oxy]phenyl}-N′-(2,2-dimethylpropanoyl)thiourea], the IC50 is 76 nM.
`COc1cc2nccc(Oc3ccc(NC(=S)NC(=O)C4(c5ccccc5)CC4)cc3Cl)c2cc1OC` [Example 1194, N-{3-Chloro-4-[(6,7-dimethoxy-4-quinolyl)oxy]phenyl}-N′-[(1-phenylcyclopropyl)carbonyl]thiourea]: the IC50 is 56 nM.
On the same count and under the same terms, the result for `COc1cc2ncnc(Oc3ccc(NC(=S)NC(=O)CCCl)cc3)c2cc1OC` [Example 1199, N-(3-Chloropropanoyl)-N′-{4-[(6,7-dimethoxy-4-quinazolinyl)oxy]phenyl}thiourea] reads 42 nM; that for `COc1ccc(C(=O)NC(=S)Nc2ccc(Oc3ncnc4cc(OC)c(OC)cc34)cc2)cc1OC` [Example 1203, N-(3,4-Dimethoxybenzoyl)-N′-{4-[(6,7-dimethoxy-4-quinazolinyl)oxy]phenyl}thiourea], less than 10 nM.
On the same count and under the same terms, under “N-{4-[(6,7-Dimethoxy-4-quinazolinyl)oxy]phenyl}-N-ethyl-N′-(4-phenylbutanoyl)thiourea [Example 1140]” stands greater than 100 nM.
The same measure, in the same setting: under “N-{4-[(6,7-Dimethoxy-4-quinolyl)oxy]-2,5-dimethylphenyl}-N′-(N-cyclohexylamino)thiourea [Example 523]” stands greater than 100 nM.

The experiment is the same for the next values; noted with them: Pharmacological Test Example 1; > means inhibition at indicated concentration not more than 50%, < and << not less than 50%; read-out: PDGF (E) IC50.
“1-(3-Chlorophenyl)ethyl N-{4-((6,7-dimethoxy-4-quinazolinyl)oxy)phenyl}carbamate [Example 3]”: the IC50 is less than 10 nM.
Same read-out and setting: the result for “3-[(4-Methylphenyl)sulfanyl]ethyl N-{4-[(6,7-dimethoxy-4-quinolyl)oxy]-2,5-dimethylphenyl}carbamate [Example 139]” reads 57 nM; that for “4-(Dimethylamino)butyl N-{4-[(6,7-dimethoxy-4-quinazolinyl)oxy]phenyl}carbamate [Example 194]”, 91 nM; that for `COc1cc2ncnc(Oc3ccc(NC(=O)OCc4ccc(C)cc4)cc3)c2cc1OC` [Example 1, 4-Methylbenzyl N-{4-[(6,7-dimethoxy-4-quinazolinyl)oxy]phenyl}carbamate], less than 10 nM.
Regarding `COc1cc2ncnc(Oc3ccc(NC(=O)OCc4ccc(C)cc4)c(Cl)c3)c2cc1OC` [Example 2, 4-Methylbenzyl N-{2-chloro-4-[(6,7-dimethoxy-4-quinazolinyl)oxy]phenyl}carbamate], the IC50 came out at 17 nM.

Staying with this experiment, now noted: figure in parentheses in >100( ); at 100 nM.
Take “N-{4-[(6,7-Dimethoxy-4-quinazolinyl)oxy]phenyl}-N-ethyl-N′-(4-phenylbutanoyl)thiourea [Example 1140]”: the “PDGF (E) inhibition (%) at 100 nM” value is 22%.

Another experiment addresses T2, c-kit (Homo sapiens, UniProt P10721).
T2 construct: MO7e (human megakaryocytic leukemia cell line) which had been arrested for 20 hr; endogenous in cells; host or cells: MO7e human megakaryocytic leukemia cell line
Briefly: Inhibitory activity against c-kit autophosphorylation (MO7e cells, h-SCF). It counts as cell-based. The following applies: MO7e cells, 50 ng/ml h-SCF; read-out: c-kit IC50. The procedure, abridged:
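Ligand-induced c-kit tyrosine phosphorylation is measured in MO7e cells that were quiesced 20 hr and preincubated with compound for 1 hr prior to a 5 min pulse of 50 ng/ml human SCF. Phospho-c-kit is detected by anti-phosphotyrosine capture ELISA, A450.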
Regarding “3-Morpholinopropyl N-{4-[(6,7-dimethoxy-4-quinolyl)oxy]-2,5-dimethylphenyl}carbamate [Example 423]”, the IC50 stood at 102 nM.

The same experiment, now with this note: MO7e cells, h-SCF 50 ng/ml; read-out: c-kit IC50.
In the case of “1-(3-Chlorophenyl)ethyl N-{4-((6,7-dimethoxy-4-quinazolinyl)oxy)phenyl}carbamate [Example 3]”, the IC50 was determined as 173 nM.
As to “3-[(4-Methylphenyl)sulfanyl]ethyl N-{4-[(6,7-dimethoxy-4-quinolyl)oxy]-2,5-dimethylphenyl}carbamate [Example 139]”, the IC50 worked out at 80 nM.
Still for that read-out and setting: the result for “4-(Dimethylamino)butyl N-{4-[(6,7-dimethoxy-4-quinazolinyl)oxy]phenyl}carbamate [Example 194]” reads 715 nM.
In the case of `COc1cc2ncnc(Oc3ccc(NC(=O)OCc4ccc(C)cc4)cc3)c2cc1OC` [Example 1, 4-Methylbenzyl N-{4-[(6,7-dimethoxy-4-quinazolinyl)oxy]phenyl}carbamate], the IC50 was 52 nM.
Regarding `COc1cc2ncnc(Oc3ccc(NC(=O)OCc4ccc(C)cc4)c(Cl)c3)c2cc1OC` [Example 2, 4-Methylbenzyl N-{2-chloro-4-[(6,7-dimethoxy-4-quinazolinyl)oxy]phenyl}carbamate], the IC50 came to 422 nM.

The record behind these values is patent publication US7135466B2 (Kirin Beer Kabushiki Kaisha, priority 1999, dated 2006).
